In brackets after ≈: the same amount, converted by molar mass. Like-named read-outs stand apart in the source and are kept apart here.
Columns and labels:
A. niger [1] = test: MFC by subculturing; assay type: cell-based
Description: (§1) The minimum bactericidal concentration (MBC) and minimum fungicidal concentration (MFC) of the synthesized benzimidazole derivatives was determined by subculturing 100 µl of culture from each tube that remained clear in MIC determination onto sterilized petri-plates containing fresh agar medium. The petri-plates were incubated and analyzed for microbial growth visually.

C. albicans [2] = test: MFC by subculturing; assay type: cell-based
Description: as §1

[3] = tested on: MCF7 (human breast cancer) cell line; test: Sulforhodamine-B (SRB) cytotoxicity assay; assay type: cell-based
M. tuberculosis H37Rv [4] = test: MIC by microplate alamar blue assay; assay type: cell-based; conditions: Mycobacterium tuberculosis, NA = no activity, read-out: MIC against M. tuberculosis H37Rv
M. tuberculosis H37Rv [5] = test: Minimum lethal concentration (MLC); assay type: cell-based; conditions: Mycobacterium tuberculosis, NA = no activity, read-out: MLC against M. tuberculosis H37Rv
C. albicans [6] = test: microbe, parasite or virus in culture; conditions: Candida albicans, 48 h, read-out: MIC C. albicans
E. coli [7] = test: Tube dilution MIC; conditions: Escherichia coli, 24 h, read-out: MIC E. coli
[8] = target: mycobacterial isocitrate lyase (Mycobacterium tuberculosis, UniProt P9WKK7); test: Mycobacterial isocitrate lyase (ICL) assay; assay type: biochemical, M. tuberculosis H37Rv; conditions: read-out: Percent inhibition of enzyme, M. ICL activity
Sequence of mycobacterial isocitrate lyase (P9WKK7 whole entry): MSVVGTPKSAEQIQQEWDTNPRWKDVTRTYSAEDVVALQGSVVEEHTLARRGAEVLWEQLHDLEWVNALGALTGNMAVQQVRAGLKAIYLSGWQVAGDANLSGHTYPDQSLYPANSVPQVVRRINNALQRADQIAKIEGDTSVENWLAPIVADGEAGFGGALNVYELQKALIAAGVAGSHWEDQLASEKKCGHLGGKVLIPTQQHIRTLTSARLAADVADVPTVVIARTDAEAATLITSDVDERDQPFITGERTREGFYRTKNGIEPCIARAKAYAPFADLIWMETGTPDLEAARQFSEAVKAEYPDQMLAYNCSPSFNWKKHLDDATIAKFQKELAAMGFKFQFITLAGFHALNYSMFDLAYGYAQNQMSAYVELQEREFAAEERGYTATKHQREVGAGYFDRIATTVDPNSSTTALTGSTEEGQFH
Description: The compounds found potent in in vivo evaluation were assayed for inhibition of mycobacterial enzymes viz., isocitrate lyase, pantothenate synthetase and chorismate mutase.
Isocitrate lyase activity was assayed according to the protocol reported by Dixon and Kornberg (glyoxylate phenyl hydrazone formation) at 10 μM of the compounds.

[9] = In vivo LD50, ED50 and toxic dose in mice models; conditions: mouse, dose that killed 50% of the mice population within the group
Description: The LD50 and ED50 were determined for the active compounds in mice models infected with Mycobacterium H37Rv (Table 4). […] Thus, ED50 of 1.34 mg/kg was considered safe for each of the compounds. It was observed that this dose was effective and safe for mice in different groups before infecting the mice models with specific TB bacteria as no mortality of any single animal was recorded.
The LD50 (lethal dose) and ED50 (optimum/effective dose) doses were determined for the active compounds in mice models infected with Mycobacterium H37Rv via ethical permission no., NCFT/EC/16/2313 assigned to Collaborative Research Group (CRG), NCFT, New Delhi, India.

B. subtilis [10] = test: Tube dilution MIC; conditions: Bacillus subtilis, 24 h, read-out: MIC B. subtilis
B. cereus [11] = test: Tube dilution MIC; conditions: Bacillus cereus, 24 h, read-out: MIC B. cereus
S. typhi [12] = test: Tube dilution MIC; assay type: cell-based; conditions: Salmonella enterica, 24 h, read-out: MIC S. typhi
S. typhi [13] = test: MBC by subculturing; assay type: cell-based; conditions: Salmonella enterica, read-out: MBC S. typhi
Description: as §1

S. aureus [14] = test: MBC by subculturing; assay type: cell-based; conditions: Staphylococcus aureus
Description: as §1

B. subtilis [15] = test: MBC by subculturing; assay type: cell-based
Description: as §1

E. coli [16] = test: MBC by subculturing; assay type: cell-based; conditions: Escherichia coli
Description: as §1

B. cereus [17] = test: MBC by subculturing; assay type: cell-based
Description: as §1

S. aureus [18] = test: Tube dilution MIC; conditions: Staphylococcus aureus, 24 h, read-out: MIC S. aureus
[19] = tested on: Gram positive as well as Gram negative bacterial species; test: Tube dilution MIC, bacteria overall; assay type: cell-based
[20] = tested on: M. tuberculosis H37Rv (NCFT/TB/537); test: Well diffusion susceptibility test (zone of inhibition); assay type: cell-based; conditions: Mycobacterium tuberculosis, 672 h, read-out: Diameter of zone of inhibition against H37Rv (NCFT/TB/537), wells of 8 mm, 50 µg/ml test compound, 25 µg/ml standard drug, 4 weeks, NA = no activity
A. niger [21] = test: microbe, parasite or virus in culture; conditions: Aspergillus niger, 168 h, read-out: MIC A. niger
[22] = tested on: HCT116 (human colorectal) cell line; test: Sulforhodamine-B (SRB) cytotoxicity assay; assay type: cell-based

Row | Structure (SMILES) | MIC (M. tuberculosis H37Rv [4]) [µg/mL] | MBC (M. tuberculosis H37Rv [5]) [µg/mL] | MIC (C. albicans [6]) [µM] | MIC (E. coli [7]) [µM] | MIC (B. subtilis [10]) [µM] | MIC (B. cereus [11]) [µM] | MIC (S. typhi [12]) [µM] | MBC (S. typhi [13]) [µg/mL] | MBC (S. aureus [14]) [µg/mL] | MBC (E. coli [16]) [µg/mL] | MIC (S. aureus [18]) [µM] | MIC against Gram positive as well as Gram negative bacterial species [19] [µM/ml] | zone of inhibition at 50 µg/mL [20] [mm] | MIC (A. niger [21]) [µM] | other results
1 | O=C(CSc1nc2ccccc2n1C(=O)c1ccccc1)Nc1cccc(Br)c1 [Compound 8, 2-(1-Benzoyl-1H-benzo[d]imidazol-2-ylthio)-N-(3-bromophenyl)acetamide] | 12.5 (≈ 26.8 µM) | 25 (≈ 53.6 µM) | 13 (≈ 6.06 µg/mL) | 27 (≈ 12.6 µg/mL) | 27 (≈ 12.6 µg/mL) | 27 (≈ 12.6 µg/mL) | 27 (≈ 12.6 µg/mL) | > 50 | 50 (≈ 107 µM) | > 50 | 27 (≈ 12.6 µg/mL) | 0.027 | > 20 | 27 (≈ 12.6 µg/mL) | MFC (A. niger [1]; Aspergillus niger, read-out: MFC A. niger): > 50 µg/mL; MFC (C. albicans [2]; Candida albicans, read-out: MFC C. albicans): 50 µg/mL (≈ 107 µM); IC50 ([3]; MCF7, read-out: IC50 MCF7): 68.6 µM; inhibition at 10 µM [8]: 59.5%; LD50 [9]: 1.88 mg/kg; MBC (B. subtilis [15]; Bacillus subtilis, read-out: MBC B. subtilis): > 50 µg/mL; MBC (B. cereus [17]; Bacillus cereus, read-out: MBC B. cereus): > 50 µg/mL; IC50 ([22]; HCT-116, read-out: IC50 HCT116): 107 µM
2 | O=C(CSc1nc2ccccc2n1C(=O)c1ccccc1)Nc1ccc(Cl)cc1[N+](=O)[O-] [Compound 11, 2-(1-Benzoyl-1H-benzo[d]imidazol-2-ylthio)-N-(4-chloro-2-nitrophenyl)acetamide] | 15 (≈ 32.1 µM) | 28 (≈ 60 µM) | 13 (≈ 6.07 µg/mL) | 27 (≈ 12.6 µg/mL) | 27 (≈ 12.6 µg/mL) | 27 (≈ 12.6 µg/mL) | 27 (≈ 12.6 µg/mL) | 50 (≈ 107 µM) | 50 (≈ 107 µM) | 50 (≈ 107 µM) | 27 (≈ 12.6 µg/mL) | 0.027 | 10 | 27 (≈ 12.6 µg/mL) | MFC (A. niger [1]; Aspergillus niger; read-out: MFC A. niger): > 50 µg/mL; MFC (C. albicans [2]; Candida albicans; read-out: MFC C. albicans): > 50 µg/mL; IC50 ([3]; SRB assay, MCF7 cell line, read-out: IC50 MCF7): 161 µM; MBC (B. subtilis [15]; Bacillus subtilis; read-out: MBC B. subtilis): 50 µg/mL (≈ 107 µM); MBC (B. cereus [17]; Bacillus cereus; read-out: MBC B. cereus): > 50 µg/mL; IC50 ([22]; HCT-116, SRB assay, HCT116 cell line, read-out: IC50 HCT116): 23.6 µM
